Consider 23 molecules from patent US20180311342A1, “IMMUNOSTIMULATING AGENT” (AJINOMOTO CO., INC., priority 2017, published 2018).

Structures can show the parent of a compound that is named as a salt.

Experiment [1] concerns anti-OVA-specific IgG1 subclass antibody. Kind of experiment: Adjuvant activity test: anti-OVA-specific IgG1 subclass antibody in serum of OVA-immunized mice (ELISA). It counts as in vivo, BALB/c mice. The following applies: after secondary immunization, serum 2 weeks later; OVA 5 μg + compound 0.256 μmol in 5% αCD-added saline (Addavax mixed with saline at 1:1), dorsal-subcutaneous; compared to OVA single administration group. (In general: In an ELISA, binding on a coated surface is turned into a signal by an enzyme label.)

Experiment [2] has as its system anti-OVA-specific IgG2a subclass antibody. Put plainly: Adjuvant activity test: anti-OVA-specific IgG2a subclass antibody in serum of OVA-immunized mice (ELISA). The class given is in vivo, BALB/c mice. The following applies: after secondary immunization, serum 2 weeks later; OVA 5 μg + compound 0.256 μmol in 5% αCD-added saline (Addavax mixed with saline at 1:1), dorsal-subcutaneous; compared to OVA single administration group.

As to `CCCCCCCCCCCCCCCCOC(=O)N[C@@H](CCCCN)C(=O)NCCCCCCCC.Cl` [SZ188, hexadecyl N-[(1S)-5-amino-1-(octylcarbamoyl)pentyl]carbamate hydrochloride], the “anti-OVA-specific IgG1 subclass antibody production” value in experiment [1] was “showed a tendency to increase”. In addition, the “anti-OVA-specific IgG2a subclass antibody production” value in experiment [2] is “showed a tendency to increase”.
For `CCCCCCCCCCCCCCCCOC(=O)N[C@@H](CCCCN)C(=O)NCCCCCCCCCCCC.Cl` [SZ189, hexadecyl N-[(1S)-5-amino-1-(dodecylcarbamoyl)pentyl]carbamate hydrochloride], the “anti-OVA-specific IgG1 subclass antibody production” value in experiment [1] is “significant enhancement”. In experiment [2], the “anti-OVA-specific IgG2a subclass antibody production” value was “significant enhancement”.
In the case of `CCCCCCCCCCCCCCCCNC(=O)NCCCCNC(=N)N.Cl` [SZ190, 1-(4-guanidinobutyl)-3-hexadecyl-urea hydrochloride], the “anti-OVA-specific IgG1 subclass antibody production” value in experiment [1] is “showed a tendency to increase”. In experiment [2], the “anti-OVA-specific IgG2a subclass antibody production” value is “showed a tendency to increase”.
As for `CCCCCCCCCCCCCCCCCC(=O)N[C@H](CCCNC(=N)N)C(=O)NCCCCCCCCCCCC.Cl` [SZ191, N-[(1R)-1-(dodecylcarbamoyl)-4-guanidino-butyl]octadecanamide hydrochloride], the “anti-OVA-specific IgG1 subclass antibody production” value in experiment [1] is given as “significant enhancement”. The “anti-OVA-specific IgG2a subclass antibody production” value in experiment [2] is recorded as “significant enhancement”.
For the molecule `CCCCCCCCCCCCCCCCNC(=O)N[C@H](CCCNC(=N)N)C(=O)NCCCCCCCCCCCC.Cl` [SZ193, (2R)—N-dodecyl-5-guanidino-2-(hexadecylcarbamoylamino)pentanamide hydrochloride], the “anti-OVA-specific IgG1 subclass antibody production” value in experiment [1] is “showed a tendency to increase”. Besides, in experiment [2], the “anti-OVA-specific IgG2a subclass antibody production” value was “showed a tendency to increase”.
Consider `CCCCCCCCCCCCCCCC(=O)N[C@H](CCCCN)C(=O)NCCCCCCCCCCCC.Cl` [SZ194, N-[(1R)-5-amino-1-(dodecylcarbamoyl)pentyl]hexadecanamide hydrochloride], for which the “anti-OVA-specific IgG1 subclass antibody production” value in experiment [1] is recorded as “showed a tendency to increase”. The “anti-OVA-specific IgG2a subclass antibody production” value in experiment [2] was “showed a tendency to increase”.
For `CCCCCCCCCCCCCCCCCC(=O)N[C@@H](CC(C)C)C(=O)NCCCCCCCCCCCC` [SZ195, N-[(1S)-1-(dodecylcarbamoyl)-3-methyl-butyl]octadecanamide], the “anti-OVA-specific IgG1 subclass antibody production” value in experiment [1] is on record as “tended to increase”. In addition, the “anti-OVA-specific IgG2a subclass antibody production” value in experiment [2] is recorded as “tended to increase”.
In the case of `CCCCCCCCCCCCCCCCCC(=O)N[C@@H](CC(C)C)C(=O)NCCCCCCCC` [SZ196, N-[(1S)-3-methyl-1-(octylcarbamoyl)butyl]octadecanamide], the “anti-OVA-specific IgG1 subclass antibody production” value in experiment [1] is reported as “significant enhancement”. The “anti-OVA-specific IgG2a subclass antibody production” value in experiment [2] is given as “tended to increase”.
As to `CCCCCCCCCCCCCCCCCCCCCC(=O)N[C@@H](CC(C)C)C(=O)NCCCCCCCCCCCC` [SZ197, N-[(1S)-1-(dodecylcarbamoyl)-3-methyl-butyl]docosanamide], in experiment [1], the “anti-OVA-specific IgG1 subclass antibody production” value is given as “tended to increase”. Moreover, the “anti-OVA-specific IgG2a subclass antibody production” value in experiment [2] is “tended to increase”.
Regarding `CCCCCCCCCCCCCCCCCCCCCC(=O)N[C@@H](CC(C)C)C(=O)NCCCCCCCC` [SZ198, N-[(1S)-3-methyl-1-(octylcarbamoyl)butyl]docosanamide], in experiment [1], the “anti-OVA-specific IgG1 subclass antibody production” value is listed as “tended to increase”. The “anti-OVA-specific IgG2a subclass antibody production” value in experiment [2] was “tended to increase”.
Turning to `CCCCCCCCCCCCCCCC(=O)N[C@@H](CC(C)C)C(=O)NCCCCCCCC` [SZ199, N-[(1S)-3-methyl-1-(octylcarbamoyl)butyl]hexadecanamide], in experiment [1], the “anti-OVA-specific IgG1 subclass antibody production” value is “significant enhancement”. Also, in experiment [2], the “anti-OVA-specific IgG2a subclass antibody production” value was “tended to increase”.
As for `CCCCCCCCCCCCCCCCNC(=O)N[C@@H](CC(C)C)C(=O)NCCCCCCCC` [SZ201, (2S)-2-(hexadecylcarbamoylamino)-4-methyl-N-octyl-pentanamide], the “anti-OVA-specific IgG1 subclass antibody production” value in experiment [1] was “tended to increase”. Also, the “anti-OVA-specific IgG2a subclass antibody production” value in experiment [2] is “tended to increase”.
In the case of `CCCCCCCCCCCCCCCCOC(=O)N[C@@H](CC(C)C)C(=O)NCCCCCCCC` [SZ203, hexadecyl N-[(1S)-3-methyl-1-(octylcarbamoyl)butyl]carbamate], in experiment [1], the “anti-OVA-specific IgG1 subclass antibody production” value is recorded as “tended to increase”. The “anti-OVA-specific IgG2a subclass antibody production” value in experiment [2] was “tended to increase”.
Take `CCCCCCCCCCCCCCCCCC(=O)NCC(C)(C)C(=O)NCCCCCCCCCCCC` [SZ204, N-[3-(dodecylamino)-2,2-dimethyl-3-oxo-propyl]octadecanamide]: the “anti-OVA-specific IgG1 subclass antibody production” value in experiment [1] was “significant enhancement”. Moreover, the “anti-OVA-specific IgG2a subclass antibody production” value in experiment [2] is recorded as “tended to increase”.
`CCCCCCCCCCCCCCCCCC(=O)N[C@@H](CCCCNC(=N)N)C(=O)NCCCCCCCCCCCC.Cl` [SZ205, N-[(1S)-1-(dodecylcarbamoyl)-5-guanidino-pentyl]octadecanamide hydrochloride]: the “anti-OVA-specific IgG1 subclass antibody production” value in experiment [1] is “significant enhancement”. In experiment [2], the “anti-OVA-specific IgG2a subclass antibody production” value is “significant enhancement”.
Consider `CCCCCCCCCCCCNC(=O)[C@H](CCCNC(=N)N)N(CCCCCCC)CCCCCCC` [SZ207, (2S)-2-(diheptylamino)-N-dodecyl-5-guanidino-pentanamide dihydrochloride], for which the “anti-OVA-specific IgG1 subclass antibody production” value in experiment [1] is “significant enhancement”. For the same molecule, in experiment [2], the “anti-OVA-specific IgG2a subclass antibody production” value was “significant enhancement”.
On to `CCCCCCCCCCCCCCCCCCCCCC(=O)NCCc1ccncc1.Cl` [SZ209, N-[2-(4-pyridyl)ethyl]docosanamide hydrochloride], for which the “anti-OVA-specific IgG1 subclass antibody production” value in experiment [1] was “tended to increase”. Also, the “anti-OVA-specific IgG2a subclass antibody production” value in experiment [2] is recorded as “tended to increase”.
For `CCCCCCCCCCCCCCCCNC(=O)N[C@@H](CCCNC(=N)N)C(=O)NCCCCCCCC.Cl` [SZ210, (2S)-5-guanidino-2-(hexadecylcarbamoylamino)-N-octyl-pentanamide hydrochloride], the “anti-OVA-specific IgG1 subclass antibody production” value in experiment [1] is recorded as “significant enhancement”. Moreover, the “anti-OVA-specific IgG2a subclass antibody production” value in experiment [2] was “significant enhancement”.
Take `CCCCCCCCCCCCCCCCCCNC(=O)N[C@@H](CCCNC(=N)N)C(=O)NCCCCCCCCCCCC.Cl` [SZ211, (2S)—N-dodecyl-5-guanidino-2-(octadecylcarbamoylamino)pentanamide hydrochloride]: the “anti-OVA-specific IgG1 subclass antibody production” value in experiment [1] is reported as “significant enhancement”. In addition, in experiment [2], the “anti-OVA-specific IgG2a subclass antibody production” value was “significant enhancement”.
As to `CCCCCCCCCCCCNC(=O)N[C@@H](CCCNC(=N)N)C(=O)NCCCCCCCCCCCC.Cl` [SZ212, (2S)—N-dodecyl-2-(dodecylcarbamoylamino)-5-guanidino-pentanamide hydrochloride], the “anti-OVA-specific IgG1 subclass antibody production” value in experiment [1] is on record as “significant enhancement”. Besides, the “anti-OVA-specific IgG2a subclass antibody production” value in experiment [2] is reported as “significant enhancement”.
Take `CCCCCCCCCCCCCCCCNC(=O)N[C@@H](CCCCN)C(=O)NCCCCCCCC.Cl` [SZ213, (2S)-6-amino-2-(hexadecylcarbamoylamino)-N-octyl-hexanamide hydrochloride]: the “anti-OVA-specific IgG1 subclass antibody production” value in experiment [1] is listed as “significant enhancement”. For the same molecule, in experiment [2], the “anti-OVA-specific IgG2a subclass antibody production” value is “significant enhancement”.
As to `CCCCCCCCCCCCCCCCNC(=O)N[C@@H](CCCCN)C(=O)NCCCCCCCCCCCC.Cl` [SZ214, (2S)-6-amino-N-dodecyl-2-(hexadecylcarbamoylamino)hexanamide hydrochloride], the “anti-OVA-specific IgG1 subclass antibody production” value in experiment [1] is “significant enhancement”. Further, the “anti-OVA-specific IgG2a subclass antibody production” value in experiment [2] is given as “significant enhancement”.
On to `CCCCCCCCCCCCCCCCOC(=O)N[C@@H](CCCNC(=N)N)C(=O)NCCCCCCCC.Cl` [SZ215, hexadecyl N-[(1S)-4-guanidino-1-(octylcarbamoyl)butyl]carbamate hydrochloride], for which the “anti-OVA-specific IgG1 subclass antibody production” value in experiment [1] is on record as “a tendency toward increase”. The “anti-OVA-specific IgG2a subclass antibody production” value in experiment [2] was “significant enhancement”.
